Results published in US20260257992A1, “AGONISTS OF SMALL HETERODIMER PARTNER FOR CANCER THERAPY” (THE BOARD OF TRUSTEES OF THE UNIVERSITY OF ILLINOIS, priority 2023, published 2026).

Experiments:
RAW 264.7 cells = test: Compound uptake assay (LC-MS/MS); format: in vitro ADME; conditions: for Intracellular compound concentration, 4 h / Intracellular compound concentration, 8 h / Intracellular compound concentration, 24 h: 50 μM
Protocol: Conversion of a carboxylic acid to an ester is often associated with better cellular uptake. Therefore, we explored whether the kinetics of uptake differed between the two compounds, using RAW 264.7 cells as a model for myeloid immune cells. RAW 264.7 cells were treated with 50 μM of DSHN or DSHN-OME for 4, 8 or 24 h. At the appropriate time-point cells were washed and subjected to LC-MS/MS to quantify intracellular compound concentration. […] At 8 h, 12.6 nM DSHN was detected.
Compound Uptake Assay. Cellular uptake of DSHN and DSHN-OMe was determined in RAW 264.7 cells cultured in 60×15 mm tissue culture dishes. Cells were treated with vehicle (0.1% DMSO), 50 μM DSHN or 50 μM DSHN-OMe for 4 h, 8 h, or 24 h. After incubation, cells were harvested, washed with PBS and cell pellets were incubated at −80° C. freezer. Next, cell pellets were resuspended in 200 μL 70:30 MeOH:H2O and sonicated to lyse cells. Debris from lysed cell suspension was removed by centrifugation. Resulting supernatant was analyzed by LC-MS/MS.

E0771 tumors = test: Orthotopic syngeneic E0771 mammary tumor growth; format: in vivo, mouse
Description: FIG. 3A-3F. DSHN, a tool small molecule agonist of NR0B2 reduces macrophage/dendritic cell induced Treg expansion and tumor growth in murine models. […] (B) Dendritic cells (left-CD11B^+; CD11C^+) and CD4^+ T cells (right) were isolated from MMTV-PyMT tumors by FACS, and treated with vehicle or DSHN for 3d. The resulting frequency of Treg (CD4^+; CD25^+; FoxP3^+) was quantified by flow cytometry (right graph), (N=3-5/group, t test). […] The percentage of divided CD8+ T cells in the second round was quantified. (D) DSHN increases efficacy of αPDL1 therapy on orthotopic E0771 tumors. An optimal number of E0771 cells were grafted into FoxP3-EGFP mice and allowed to grow until tumors reached 100 mm^3. Mice were euthanized on day 19 (waterfall plot, Fisher's exact test). (E) DSHN increases efficacy of αPDL1 therapy on orthotopic 4T1 tumors. 4T1 cells were orthotopically grafted into mice and allowed to establish for 5d prior to treatment start. Mice were euthanized on day 16 (waterfall plot, Fisher's exact test). (F) DSHN reduces metastatic outgrowth of 4T1 tumors and enhances efficacy of αPDL1 compared to placebo (p) (2-way ANOVA followed by Šidák's multiple comparison test for day 16). 4T1 cells were grafted intravenously, and lung metastatic lesions allowed to establish for 3d before treatment commenced. At the end of the study, lungs were removed and imaged ex vivo, quantified data indicated (N=10, 1-way ANOVA followed by Newman-Keuls multiple comparison test). Representative luciferase images shown to the right. * or different letters denote P<0.05 using indicated statistical test.
FIG. 7A-7I. DSHN-OMe reduces tumor and metastatic growth in murine models, in a myeloid cell-NR0B2 dependent manner. (A) E0771 cells were grafted into control mice (NR0B2^+/+; LysMCre^+) or mice where NR0B2 was knocked out in myeloid immune cells (NR0B2^fl/fl; LysMCre^+). […] (G) EMT6 metastatic lungs were assessed for Ki67 mRNA and (H) FOXP3 mRNA. (I) EMT6 metastatic lungs were assessed for CD8+ cytotoxic T cells (CD8+). […]

CD8+ T cell expansion = test: Suppressiveness of T cells expanded with treated BMDMs (secondary CD8+ expansion); format: cell-based, mouse; conditions: BMDMs pretreated with compound
Description: FIG. 6A-6F. […] (A) DSHN-OMe has minimal effects on BMDM viability (N=4-6/group). (B) DSHN-OMe treated BMDMs reduce Treg expansion in a dose related manner, with an increased biological maximum compared to DSHN (data normalized to mean vehicle, which was set at 100%. Non-linear three parameter regression shown, N=4/point). […] Different letters denote P<0.05. […] The percentage of divided CD8+ T cells in the second round was quantified. (N=3-5/group, different letters indicating statistical significance, 1-way ANOVA followed by Tukey). […] Vehicle (DMSO) treated BMDMs are indicated on the right for comparison. (F) Cellular uptake of DSHN-OMe greatly exceeds that of DSHN though time. RAW264.7 cells were treated with 50 µM of vehicle (DMSO) or indicated compound for 4 h, 8 h or 24 h. Compound was washed off, cells were lysed and resulting DSHN and DSHN-OMe contents were assessed by LC-MS/MS. Note different scales on y-axes. For DSHN treated cells, no DSHN-OMe was detected (not shown). For DSHN-OMe treated cells, some DSHN was detected. ND signifies when compounds were not detected. (N=3/group. 4 h timepoint was run in an experiment independent of the 8 and 24 hr timepoints).
In order to better assess the potential cellular toxicity of DSHN-OMe, we treated BMDMs with increasing doses and measured their ability to reduce resazurin to resorufin (similar to the MTT viability assay).

Row | SMILES | Intracellular compound concentration, 4 h (RAW 264.7 cells) | Intracellular compound concentration, 8 h (RAW 264.7 cells) | Intracellular compound concentration, 24 h (RAW 264.7 cells) | Growth of established E0771 tumors, combined with αPDL1 (E0771 tumors; DSHN combined with αPDL1) | Suppressiveness of expanded T cells towards second set of naïve T cells (CD8+ expansion) (CD8+ T cell expansion) | Difference in intracellular concentration, DSHN-OMe versus DSHN (RAW 264.7 cells) [log] | E0771 tumor growth, myeloid NR0B2 knockout (E0771 tumors; NR0B2fl/fl, LysMCre+ mice) | E0771 tumor growth (E0771 tumors; control NR0B2+/+, LysMCre+ mice, daily treatment from day 8)
1 | CCN(CC)S(=O)(=O)c1cccc2cc(C(=O)O)c(O)cc12 [DSHN, reference compound] | below detection limits | 12.6 nM | no intracellular DSHN was detected | decreased growth | less suppressive | – | – | –
2 | CCN(CC)S(=O)(=O)c1cccc2cc(C(=O)OC)c(O)cc12 [DSHN-OMe, Methyl 5-(N,N-diethylsulfamoyl)-3-hydroxy-2-naphthoate] | 7,481 nM | 19,279 nM | 11,089 nM | – | less suppressive | > 2 | no significant impact | significantly reduced E0771 tumor growth
